Assay results taken from patent US20260232767A1, “INTERLEUKIN-23 RECEPTOR ANTAGONIST PEPTIDES FOR USE IN THE TREATMENT OF PSORIASIS” (Janssen Pharmaceutica NV, priority 2023, published 2026).

Tested on: subjects with moderate-to-severe plaque psoriasis
Test: PSSD symptom and sign scores, Example 2
Type: in vivo, human
Settings: for Change from Baseline in PSSD Symptom Score at Week 52, LSMean: MMRM model; for Subjects Achieving PSSD Sign Score 0 at Week 52: Subjects w/Baseline PSSD Sign Score ≥1 (Table 26, second block); for Subjects achieving PSSD Sign Score = 0 at Week 52: subjects with Baseline PSSD Sign Score ≥1; for Subjects achieving PSSD Symptom Score = 0 at Week 52: subjects with Baseline PSSD Symptom Score ≥1; for Change from Baseline in PSSD Sign Score, LSMean / Change from Baseline in PSSD Symptom Score, LSMean: MMRM
[1] = Placebo → 100 mg QD, crossed over at or after Week 16

SMILES: CC(=O)NCCCC[C@@H]1NC(=O)[C@H](Cc2c[nH]c3c(C)cccc23)NC(=O)[C@H]([C@@H](C)O)NC(=O)[C@H](CC(N)=O)NC(=O)[C@@H](NC(C)=O)C(C)(C)SSC(C)(C)[C@@H](C(=O)N[C@@H](Cc2ccc(OCCN)cc2)C(=O)N[C@@H](Cc2ccc3ccccc3c2)C(=O)NC2(C(=O)N[C@@H](CCC(=O)O)C(=O)N[C@@H](CC(N)=O)C(=O)N[C@@H](Cc3cccnc3)C(=O)N(C)CC(N)=O)CCOCC2)NC1=O [IL-23 receptor antagonist peptide, Ac-[Pen]*-N-T-[W(7-Me)]-[Lys(Ac)]-[Pen]*-Phe[4-(2-aminoethoxy)]-[2-Nal]-[THP]-E-N-[3-Pal]-Sarc-NH2 (*[Pen]-[Pen]* formdisulfidebond)]
- Change from Baseline in PSSD Sign Score at Week 52, Median (25 mg BID): −38.5
- Change from Baseline in PSSD Symptom Score at Week 52, Median (25 mg BID): −27.0
- Change from Baseline in PSSD Symptom Score at Week 52, LSMean (25 mg BID): −31.4
- Subjects Achieving PSSD Sign Score 0 at Week 52 (25 mg BID): 5 (12.2%)
- Subjects achieving PSSD Sign Score = 0 at Week 52 (25 mg BID): 5 (12.2%)
- Subjects achieving PSSD Symptom Score = 0 at Week 52 (25 mg BID): 7 (17.1%)
- Change from Baseline in PSSD Sign Score at Week 52, Median (25 mg QD): −32.5
- Change from Baseline in PSSD Symptom Score at Week 52, Median (25 mg QD): −35.0
- Change from Baseline in PSSD Symptom Score at Week 52, LSMean (25 mg QD): −22.3
- Subjects Achieving PSSD Sign Score 0 at Week 52 (25 mg QD): 7 (16.3%)
- Subjects achieving PSSD Sign Score = 0 at Week 52 (25 mg QD): 7 (16.3%)
- Subjects achieving PSSD Symptom Score = 0 at Week 52 (25 mg QD): 8 (18.6%)
- Change from Baseline in PSSD Sign Score at Week 52, Median (50 mg QD): −45.0
- Change from Baseline in PSSD Symptom Score at Week 52, Median (50 mg QD): −34.0
- Change from Baseline in PSSD Symptom Score at Week 52, LSMean (50 mg QD): −33.0
- Subjects achieving PSSD Sign Score = 0 at Week 52 (50 mg QD): 5 (11.6%)
- Subjects achieving PSSD Symptom Score = 0 at Week 52 (50 mg QD): 9 (21.4%)
- Change from Baseline in PSSD Sign Score at Week 52, Median (100 mg BID): −55.0
- Change from Baseline in PSSD Symptom Score at Week 52, Median (100 mg BID): −53.0
- Change from Baseline in PSSD Symptom Score at Week 52, LSMean (100 mg BID): −44.0
- Subjects Achieving PSSD Sign Score 0 at Week 52 (100 mg BID): 7 (16.7%)
- Subjects achieving PSSD Sign Score = 0 at Week 52 (100 mg BID): 7 (16.7%)
- Change from Baseline in PSSD Sign Score at Week 52, Median (100 mg QD): −43.0
- Change from Baseline in PSSD Symptom Score at Week 52, Median (100 mg QD): −28.0
- Change from Baseline in PSSD Symptom Score at Week 52, LSMean (100 mg QD): −36.5
- Subjects Achieving PSSD Sign Score 0 at Week 52 (100 mg QD): 6 (14.0%)
- Change from Baseline in PSSD Sign Score at Week 52, Median [1]: −48.5
- Change from Baseline in PSSD Symptom Score at Week 52, Median [1]: −30.0
- Change from Baseline in PSSD Symptom Score at Week 52, LSMean [1]: −32.4
- Subjects achieving PSSD Sign Score = 0 at Week 52 [1]: (22.9%)
- Subjects achieving PSSD Symptom Score = 0 at Week 52 [1]: (34.3%)
- Change from Baseline in PSSD Sign Score, Mean (Week 1, 25 mg BID): −11.3
- Change from Baseline in PSSD Sign Score, Median (Week 1, 25 mg BID): −11.0
- Change from Baseline in PSSD Symptom Score, Mean (Week 1, 25 mg BID): −7.6
- Change from Baseline in PSSD Symptom Score, Median (Week 1, 25 mg BID): −8.0
- Change from Baseline in PSSD Sign Score, LSMean (Week 1, 25 mg BID): −11.4
- Change from Baseline in PSSD Symptom Score, LSMean (Week 1, 25 mg BID): −7.8
- Change from Baseline in PSSD Sign Score, Mean (Week 1, 25 mg QD): −11.9
- Change from Baseline in PSSD Sign Score, Median (Week 1, 25 mg QD): −10.5
- Change from Baseline in PSSD Symptom Score, Mean (Week 1, 25 mg QD): −12.9
- Change from Baseline in PSSD Symptom Score, Median (Week 1, 25 mg QD): −12.0
- Change from Baseline in PSSD Sign Score, LSMean (Week 1, 25 mg QD): −10.9
- Change from Baseline in PSSD Symptom Score, LSMean (Week 1, 25 mg QD): −11.1
- Change from Baseline in PSSD Sign Score, Mean (Week 1, 50 mg QD): −13.3
- Change from Baseline in PSSD Sign Score, Median (Week 1, 50 mg QD): −11.0
- Change from Baseline in PSSD Symptom Score, Mean (Week 1, 50 mg QD): −9.6
- Change from Baseline in PSSD Symptom Score, Median (Week 1, 50 mg QD): −12.0
- Change from Baseline in PSSD Sign Score, LSMean (Week 1, 50 mg QD): −13.3
- Change from Baseline in PSSD Symptom Score, LSMean (Week 1, 50 mg QD): −9.1
- Change from Baseline in PSSD Sign Score, Mean (Week 1, 100 mg BID): −15.9
- Change from Baseline in PSSD Sign Score, Median (Week 1, 100 mg BID): −16.0
- Change from Baseline in PSSD Symptom Score, Mean (Week 1, 100 mg BID): −12.5
- Change from Baseline in PSSD Symptom Score, Median (Week 1, 100 mg BID): −8.0
- Subjects Achieving PSSD Symptom Score 0 (%) (Week 1, 100 mg BID, Baseline Symptom Score ≥1, N=42): (2.4%)
- Change from Baseline in PSSD Sign Score, LSMean (Week 1, 100 mg BID): −15.6
- Change from Baseline in PSSD Symptom Score, LSMean (Week 1, 100 mg BID): −11.5
- Change from Baseline in PSSD Sign Score, Mean (Week 1, 100 mg QD): −12.0
- Change from Baseline in PSSD Sign Score, Median (Week 1, 100 mg QD): −9.0
- Change from Baseline in PSSD Symptom Score, Mean (Week 1, 100 mg QD): −6.2
- Change from Baseline in PSSD Symptom Score, Median (Week 1, 100 mg QD): −7.0
- Change from Baseline in PSSD Sign Score, LSMean (Week 1, 100 mg QD): −12.4
- Change from Baseline in PSSD Symptom Score, LSMean (Week 1, 100 mg QD): −8.4
- Change from Baseline in PSSD Sign Score, Mean (Week 2, 25 mg BID): −20.3
- Change from Baseline in PSSD Sign Score, Median (Week 2, 25 mg BID): −15.0
- Change from Baseline in PSSD Symptom Score, Mean (Week 2, 25 mg BID): −16.0
- Change from Baseline in PSSD Symptom Score, Median (Week 2, 25 mg BID): −12.0
- Change from Baseline in PSSD Sign Score, LSMean (Week 2, 25 mg BID): −20.7
- Change from Baseline in PSSD Symptom Score, LSMean (Week 2, 25 mg BID): −16.2
- Change from Baseline in PSSD Sign Score, Mean (Week 2, 25 mg QD): −17.6
- Change from Baseline in PSSD Sign Score, Median (Week 2, 25 mg QD): −17.5
- Change from Baseline in PSSD Symptom Score, Mean (Week 2, 25 mg QD): −18.1
- Change from Baseline in PSSD Symptom Score, Median (Week 2, 25 mg QD): −17.0
- Change from Baseline in PSSD Sign Score, LSMean (Week 2, 25 mg QD): −15.7
- Change from Baseline in PSSD Symptom Score, LSMean (Week 2, 25 mg QD): −15.8
- Change from Baseline in PSSD Sign Score, Mean (Week 2, 50 mg QD): −22.7
- Change from Baseline in PSSD Sign Score, Median (Week 2, 50 mg QD): −22.0
- Change from Baseline in PSSD Symptom Score, Mean (Week 2, 50 mg QD): −17.3
- Change from Baseline in PSSD Symptom Score, Median (Week 2, 50 mg QD): −16.0
- Subjects Achieving PSSD Symptom Score 0 (%) (Week 2, 50 mg QD, Baseline Symptom Score ≥1, N=42): (2.4%)
- Change from Baseline in PSSD Sign Score, LSMean (Week 2, 50 mg QD): −23.1
- Change from Baseline in PSSD Symptom Score, LSMean (Week 2, 50 mg QD): −17.2
- Change from Baseline in PSSD Sign Score, Mean (Week 2, 100 mg BID): −24.7
- Change from Baseline in PSSD Sign Score, Median (Week 2, 100 mg BID): −28.0
- Change from Baseline in PSSD Symptom Score, Mean (Week 2, 100 mg BID): −18.4
- Change from Baseline in PSSD Symptom Score, Median (Week 2, 100 mg BID): −14.0
- Change from Baseline in PSSD Sign Score, LSMean (Week 2, 100 mg BID): −24.3
- Change from Baseline in PSSD Symptom Score, LSMean (Week 2, 100 mg BID): −17.1
- Change from Baseline in PSSD Sign Score, Mean (Week 2, 100 mg QD): −22.6
- Change from Baseline in PSSD Sign Score, Median (Week 2, 100 mg QD): −20.0
- Change from Baseline in PSSD Symptom Score, Mean (Week 2, 100 mg QD): −15.2
- Change from Baseline in PSSD Symptom Score, Median (Week 2, 100 mg QD): −14.0
- Change from Baseline in PSSD Sign Score, LSMean (Week 2, 100 mg QD): −24.3
- Change from Baseline in PSSD Symptom Score, LSMean (Week 2, 100 mg QD): −18.4
- Change from Baseline in PSSD Sign Score, Mean (Week 4, 25 mg BID): −26.9
- Change from Baseline in PSSD Sign Score, Median (Week 4, 25 mg BID): −25.0
- Change from Baseline in PSSD Symptom Score, Mean (Week 4, 25 mg BID): −22.8
- Change from Baseline in PSSD Symptom Score, Median (Week 4, 25 mg BID): −20.0
- Subjects Achieving PSSD Symptom Score 0 (%) (Week 4, 25 mg BID, Baseline Symptom Score ≥1, N=41): (4.9%)
- Change from Baseline in PSSD Sign Score, LSMean (Week 4, 25 mg BID): −27.5
- Change from Baseline in PSSD Symptom Score, LSMean (Week 4, 25 mg BID): −23.1
- Change from Baseline in PSSD Sign Score, Mean (Week 4, 25 mg QD): −24.5
- Change from Baseline in PSSD Sign Score, Median (Week 4, 25 mg QD): −29.5
- Change from Baseline in PSSD Symptom Score, Mean (Week 4, 25 mg QD): −23.6
- Change from Baseline in PSSD Symptom Score, Median (Week 4, 25 mg QD): −23.0
- Subjects Achieving PSSD Symptom Score 0 (%) (Week 4, 25 mg QD, Baseline Symptom Score ≥1, N=43): (2.3%)
- Change from Baseline in PSSD Sign Score, LSMean (Week 4, 25 mg QD): −21.7
- Change from Baseline in PSSD Symptom Score, LSMean (Week 4, 25 mg QD): −19.9
- Change from Baseline in PSSD Sign Score, Mean (Week 4, 50 mg QD): −27.4
- Change from Baseline in PSSD Sign Score, Median (Week 4, 50 mg QD): −29.0
